Assays:
Assay type in all cases: cell-based
P2X7 [1] = molecular target: T1, P2X7 (Homo sapiens (Human), UniProt Q99572); assay: P2X7 antagonism in human PBMCs (LPS + Bz-ATP induced IL-1β release, ELISA); details: LPS 30 ng/ml, Bz-ATP 0.5 mM; for PBMC 10 μM (% control): compound 10 μM; for PBMC 1 μM (% control): compound 1 μM;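 for all read-outs here: PBMCs from donor human blood, with a further 1.5 h incubation of the cells in the assay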
P2X7 [2] = molecular target: T1, P2X7; assay: Ca2+ flux (FLIPR) in 1321N1 cells expressing recombinant human P2X7 channel; details: 250 μM BzATP;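 note: Calcium-4 dye-loaded cells exposed to compound for 30 min before agonist addition, fluorescence change read 180 s after agonist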
rat P2X7 = rat P2X7 (Rattus norvegicus (Rat), UniProt Q64663); assay: Ca2+ flux (FLIPR) in 1321N1 cells expressing recombinant rat P2X7 channel; details: 250 μM BzATP;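 note: Calcium-4 dye fluorescence change read 180 s after agonist addition, following 30 min cell preincubation with test compound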
rat P2X7, sequence (Q64663 whole entry): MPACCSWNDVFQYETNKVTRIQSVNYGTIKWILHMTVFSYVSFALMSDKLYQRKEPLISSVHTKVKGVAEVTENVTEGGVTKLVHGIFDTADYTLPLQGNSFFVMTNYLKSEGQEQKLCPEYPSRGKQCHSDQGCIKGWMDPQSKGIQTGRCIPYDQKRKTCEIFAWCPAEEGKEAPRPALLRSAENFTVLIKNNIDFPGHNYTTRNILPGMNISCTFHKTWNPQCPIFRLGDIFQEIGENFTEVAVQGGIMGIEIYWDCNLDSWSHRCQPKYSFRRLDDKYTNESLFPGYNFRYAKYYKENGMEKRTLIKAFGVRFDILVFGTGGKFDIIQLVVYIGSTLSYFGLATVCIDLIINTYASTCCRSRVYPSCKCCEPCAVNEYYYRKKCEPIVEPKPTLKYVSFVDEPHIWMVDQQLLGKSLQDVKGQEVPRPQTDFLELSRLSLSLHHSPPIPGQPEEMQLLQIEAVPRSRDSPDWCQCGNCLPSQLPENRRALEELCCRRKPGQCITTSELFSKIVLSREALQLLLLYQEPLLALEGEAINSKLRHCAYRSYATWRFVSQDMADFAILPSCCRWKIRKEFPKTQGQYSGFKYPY

T1 sequence (Q99572 whole entry): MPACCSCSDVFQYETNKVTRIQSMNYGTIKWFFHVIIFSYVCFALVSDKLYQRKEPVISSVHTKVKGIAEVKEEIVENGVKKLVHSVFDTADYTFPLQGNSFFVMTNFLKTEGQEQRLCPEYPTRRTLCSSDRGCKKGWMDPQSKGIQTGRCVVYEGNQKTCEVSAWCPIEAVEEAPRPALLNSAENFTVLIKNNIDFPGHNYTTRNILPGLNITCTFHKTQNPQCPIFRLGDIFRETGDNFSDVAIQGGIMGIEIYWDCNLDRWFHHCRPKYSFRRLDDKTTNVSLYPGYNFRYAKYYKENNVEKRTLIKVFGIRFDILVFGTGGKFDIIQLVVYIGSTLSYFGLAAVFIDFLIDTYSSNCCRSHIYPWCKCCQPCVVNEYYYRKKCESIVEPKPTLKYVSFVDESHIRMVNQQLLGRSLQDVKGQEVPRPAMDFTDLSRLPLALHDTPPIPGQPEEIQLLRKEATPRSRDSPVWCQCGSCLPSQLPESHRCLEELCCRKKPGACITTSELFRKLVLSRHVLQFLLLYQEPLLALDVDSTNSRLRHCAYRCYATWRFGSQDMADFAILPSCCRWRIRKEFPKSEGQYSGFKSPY

| PBMC 10 μM (% control) (P2X7 [1]) | IC50 (P2X7 [2]) | PBMC 1 μM (% control) (P2X7 [1]) | IC50 (rat P2X7) | Structure (SMILES) |
| --- | --- | --- | --- | --- |
| −0.3 % control | 14.3 nM |  |  | O=C(c1cccc(C(F)(F)F)c1Cl)N1CCc2c(nc(C(F)(F)F)n2-c2ccccc2)C1 [Example 38, (2-Chloro-3-(trifluoromethyl)phenyl)(1-phenyl-2-(trifluoromethyl)-6,7-dihydro-1H-imidazo[4,5-c]pyridin-5(4H)-yl)methanone] |
|  |  | 99.0 % control | 4950 nM | CC1(C)c2ncn(-c3ccccc3)c2CCN1C(=O)c1cccc(C(F)(F)F)c1Cl [Example 53, 5-{[2-Chloro-3-(trifluoromethyl)phenyl]carbonyl}-4,4-dimethyl-1-phenyl-4,5,6,7-tetrahydro-1H-imidazo[4,5-c]pyridine] |
|  |  | 1.6 % control | 32.4 nM | O=C(c1cccc(C(F)(F)F)c1Cl)N1C=Cc2c(nnn2-c2cnccn2)C1c1ccccc1 (centres unmarked) [Example 76, 5-{[2-Chloro-3-(trifluoromethyl)phenyl]carbonyl}-4-phenyl-1-pyrazin-2-yl-4,5-dihydro-1H-[1,2,3]triazolo[4,5-c]pyridine] |
| −4.3 % control |  |  | > 10000 nM | Cc1cc(C)nc(-n2nnc3c2CCN(C(=O)c2cccc(Cl)c2Cl)C3C)n1 (centres unmarked) [Example 179, (2,3-dichlorophenyl)(1-(4,6-dimethylpyrimidin-2-yl)-4-methyl-6,7-dihydro-1H-[1,2,3]triazolo[4,5-c]pyridin-5(4H)-yl)methanone] |
| 6.5 % control |  |  | > 10000 nM | CC1CN(C(=O)c2cccc(C(F)(F)F)c2Cl)C(C)c2nnn(-c3ccccc3)c21 (centres unmarked) [Example 241, (2-Chloro-3-(trifluoromethyl)phenyl)(4,7-dimethyl-1-phenyl-6,7-dihydro-1H-[1,2,3]triazolo[4,5-c]pyridin-5(4H)-yl)methanone] |
| −0.8 % control | 2330 nM |  |  | CC1CN(C(=O)c2cccc(Cl)c2Cl)Cc2nnn(-c3ccc(F)cc3)c21 (centres unmarked) [Example 247, (2,3-Dichlorophenyl)(1-(4-fluorophenyl)-7-methyl-6,7-dihydro-1H-[1,2,3]triazolo[4,5-c]pyridin-5(4H)-yl)methanone] |
| −3.2 % control |  |  | 4840 nM | CCOc1cccnc1-n1nnc2c1CCN(C(=O)c1cccc(C(F)(F)F)c1Cl)C2C (centres unmarked) [Example 258, (2-Chloro-3-(trifluoromethyl)phenyl)(1-(3-ethoxypyridin-2-yl)-4-methyl-6,7-dihydro-1H-[1,2,3]triazolo[4,5-c]pyridin-5(4H)-yl)methanone] |
| −3.6 % control |  |  | 1550 nM | CC1c2ncn(-c3ccc(F)cn3)c2CCN1C(=O)c1cccc(C(F)(F)F)c1F (centres unmarked) [Example 262, (2-fluoro-3-(trifluoromethyl)phenyl)(1-(5-fluoropyridin-2-yl)-4-methyl-6,7-dihydro-1H-imidazo[4,5-c]pyridin-5(4H)-yl)methanone] |
| 16.3 % control |  |  | 20.6 nM | Cc1ccnc(-n2nnc3c2CCN(C(=O)c2cccc(C(F)(F)F)c2F)C3C)n1 (centres unmarked) [Example 269, (2-fluoro-3-(trifluoromethyl)phenyl)(4-methyl-1-(4-methylpyrimidin-2-yl)-6,7-dihydro-1H-[1,2,3]triazolo[4,5-c]pyridin-5(4H)-yl)methanone] |
| −3.7 % control |  |  | 1920 nM | O=C(c1ccc(Cl)cc1Cl)N1CCc2c(nnn2-c2cnccn2)C1 [Example 277, (2,4-dichlorophenyl)(1-(pyrazin-2-yl)-6,7-dihydro-1H-[1,2,3]triazolo[4,5-c]pyridin-5(4H)-yl)methanone] |
| −5.4 % control | 1110 nM |  |  | O=C(c1ccc(Cl)cc1Cl)N1CCc2c(ncn2-c2ccc(F)cn2)C1 [Example 313, (2,4-dichlorophenyl)(1-(5-fluoropyridin-2-yl)-6,7-dihydro-1H-imidazo[4,5-c]pyridin-5(4H)-yl)methanone] |

Second part, the molecule before the results:

| Structure (SMILES) | PBMC 10 μM (% control) (P2X7 [1]) | IC50 (P2X7 [2]) | PBMC 1 μM (% control) (P2X7 [1]) | IC50 (rat P2X7) |
| --- | --- | --- | --- | --- |
| C[C@@H]1c2nnn(-c3ccccn3)c2CCN1C(=O)c1ccc(F)c(Cl)c1Cl (single isomer, unassigned) [Example 141, (R*)-(2,3-Dichloro-4-fluorophenyl)(4-methyl-1-(pyridin-2-yl)-6,7-dihydro-1H-[1,2,3]triazolo[4,5-c]pyridin-5(4H)-yl)methanone] | 40.5 % control | 9590 nM |  |  |
| O=C(OCC1c2ncn(-c3ccccc3)c2CCN1C(=O)c1cccc(C(F)(F)F)c1Cl)c1cccc(C(F)(F)F)c1Cl (centres unmarked) [Example 36, (5-{[2-Chloro-3-(trifluoromethyl)phenyl]carbonyl}-1-phenyl-4,5,6,7-tetrahydro-1H-imidazo[4,5-c]pyridin-4-yl)methyl 2-chloro-3-(trifluoromethyl)benzoate] |  | 3080 nM | 16.6 % control |  |
| O=C(c1cccc(C(F)(F)F)c1Cl)N1CCc2c(nnn2-c2ccccn2)C1 [Example 63, 5-{[2-Chloro-3-(trifluoromethyl)phenyl]carbonyl}-1-pyridin-2-yl-4,5,6,7-tetrahydro-1H-[1,2,3]triazolo[4,5-c]pyridine] |  |  | 12.6 % control | 1090 nM |
| CC1c2nnn(-c3ncccc3F)c2CCN1C(=O)c1cccc(C(F)(F)F)c1Cl (centres unmarked) [Example 84, 5-{[2-Chloro-3-(trifluoromethyl)phenyl]carbonyl}-1-(3-fluoropyridin-2-yl)-4-methyl-4,5,6,7-tetrahydro-1H-[1,2,3]triazolo[4,5-c]pyridine] | 8.5 % control |  |  | 187 nM |
| Cn1nc(-c2ccc(F)cc2)c2c1CN(C(=O)c1cccc(Cl)c1Cl)CC2 [Example 109, 6-[(2,3-Dichlorophenyl)carbonyl]-3-(4-fluorophenyl)-1-methyl-4,5,6,7-tetrahydro-1H-pyrazolo[3,4-c]pyridine] |  | 251 nM | 94.1 % control |  |
| O=C(c1cccc(Cl)c1Cl)N1CCc2c(-c3ccncc3)n[nH]c2C1 [Example 115, 6-[(2,3-Dichlorophenyl)carbonyl]-3-pyridin-4-yl-4,5,6,7-tetrahydro-2H-pyrazolo[3,4-c]pyridine] | −3.3 % control |  |  | > 10000 nM |
| CC1Cc2c(nnn2-c2ccccn2)CN1C(=O)c1cccc(Cl)c1Cl (centres unmarked) [Example 120, 5-[(2,3-Dichlorophenyl)carbonyl]-6-methyl-1-pyridin-2-yl-4,5,6,7-tetrahydro-1H-[1,2,3]triazolo[4,5-c]pyridine] | −3.8 % control |  |  | 55.6 nM |
| COc1ccnc(-n2nnc3c2CCN(C(=O)c2cccc(C(F)(F)F)c2Cl)C3)c1 [Example 136, (2-Chloro-3-(trifluoromethyl)phenyl)(1-(4-methoxypyridin-2-yl)-6,7-dihydro-1H-[1,2,3]triazolo[4,5-c]pyridin-5(4H)-yl)methanone] | 5.3 % control |  |  | 133 nM |
| COc1ccc(-n2nnc3c2CCN(C(=O)c2cccc(C(F)(F)F)c2Cl)C3C)nc1 (centres unmarked) [Example 145, (2-Chloro-3-(trifluoromethyl)phenyl)(1-(5-methoxypyridin-2-yl)-4-methyl-6,7-dihydro-1H-[1,2,3]triazolo[4,5-c]pyridin-5(4H)-yl)methanone] | 15.2 % control | 2310 nM |  |  |
| CC1Cc2c(nnn2-c2cc(F)ccn2)CN1C(=O)c1cccc(Cl)c1Cl (centres unmarked) [Example 173, 5-[(2,3-Dichlorophenyl)carbonyl]-1-(4-fluoropyridin-2-yl)-6-methyl-4,5,6,7-tetrahydro-1H-[1,2,3]triazolo[4,5-c]pyridine] | 8.8 % control |  |  | 10.2 nM |
| Cc1nc(-n2nnc3c2CCN(C(=O)c2cccc(C(F)(F)F)c2Cl)C3C)ncc1F (centres unmarked) [Example 230, (2-chloro-3-(trifluoromethyl)phenyl)(1-(5-fluoro-4-methylpyrimidin-2-yl)-4-methyl-6,7-dihydro-1H-[1,2,3]triazolo[4,5-c]pyridin-5(4H)-yl)methanone] | 2.9 % control |  |  | 89.5 nM |
| CC1CN(C(=O)c2cccc(Cl)c2Cl)Cc2nnn(-c3ccccc3)c21 (centres unmarked) [Example 244, (2,3-Dichlorophenyl)(7-methyl-1-phenyl-6,7-dihydro-1H-[1,2,3]triazolo[4,5-c]pyridin-5(4H)-yl)methanone] | −2.3 % control | 1140 nM |  |  |
| Cc1cc(C)nc(-n2nnc3c2CCN(C(=O)c2cccc(C(F)(F)F)c2Cl)C3C)n1 (centres unmarked) [Example 253, (2-Chloro-3-(trifluoromethyl)phenyl)(1-(4,6-dimethylpyrimidin-2-yl)-4-methyl-6,7-dihydro-1H-[1,2,3]triazolo[4,5-c]pyridin-5(4H)-yl)methanone] | −2.6 % control |  |  | 12700 nM |
| CCc1cccnc1-n1nnc2c1CCN(C(=O)c1cccc(C(F)(F)F)c1Cl)C2C (centres unmarked) [Example 254, (2-Chloro-3-(trifluoromethyl)phenyl)(1-(3-ethylpyridin-2-yl)-4-methyl-6,7-dihydro-1H-[1,2,3]triazolo[4,5-c]pyridin-5(4H)-yl)methanone] | 0.9 % control |  |  | 4260 nM |
| CCCOc1cccnc1-n1nnc2c1CCN(C(=O)c1cccc(C(F)(F)F)c1Cl)C2C (centres unmarked) [Example 293, (2-chloro-3-(trifluoromethyl)phenyl)(4-methyl-1-(3-propoxypyridin-2-yl)-6,7-dihydro-1H-[1,2,3]triazolo[4,5-c]pyridin-5(4H)-yl)methanone] | −11.3 % control |  |  | 428 nM |
| Cc1ccc(-n2nnc3c2CCN(C(=O)c2cccc(C(F)(F)F)c2Cl)C3C)nc1 (centres unmarked) [Example 301, (2-chloro-3-(trifluoromethyl)phenyl)(4-methyl-1-(5-methylpyridin-2-yl)-6,7-dihydro-1H-[1,2,3]triazolo[4,5-c]pyridin-5(4H)-yl)methanone] | −2.2 % control |  |  | 163 nM |
| CC1c2ncn(-c3ccc(F)cn3)c2C=CN1C(=O)c1cccc(C(F)(F)F)c1Cl (centres unmarked) [Example 321, (2-chloro-3-(trifluoromethyl)phenyl)(1-(5-fluoropyridin-2-yl)-4-methyl-1H-imidazo[4,5-c]pyridin-5(4H)-yl)methanone] | 14.1 % control |  |  | 589 nM |
